Values quoted from earlier work in US11331258B2, “Method for dyeing keratinous material, comprising the use of an organosilicon compound, an oligoalkylsiloxane and a dyeing compound” (Henkel AG & Co. KGaA, priority 2019, dated 2022).
Read-outs that look alike come from different tables or passages of the source.

| solubility in water (25° C.) | solubility in water (at about 25° C.) | Structure (SMILES) |
| --- | --- | --- |
| more than 20 % by weight | – | CCN(Cc1cccc(S(=O)(=O)[O-])c1)c1ccc(C(=C2C=CC(=[N+](CC)Cc3cccc(S(=O)(=O)[O-])c3)C=C2)c2ccccc2S(=O)(=O)[O-])cc1.[Na+].[Na+] [Acid Blue 9] |
| about 2.5 g/L | – | Nc1cc(S(=O)(=O)[O-])cc2cc(S(=O)(=O)[O-])c(N=Nc3ccccc3)c(O)c12.[Na+].[Na+] [Acid Red 33, diantrium salt of 5-amino-4-hydroxy-3-(phenylazo)-naphthalene-2,7-disulphonate] |
| – | highly soluble | O=C([O-])C1=NN(c2ccc(S(=O)(=O)[O-])cc2)C(=O)C1N=Nc1ccc(S(=O)(=O)[O-])cc1.[Na+].[Na+].[Na+] (stereo not shown) [Acid Yellow 23, trisodium salt of 4,5-dihydro-5-oxo-1-(4-sulfophenyl)-4-((4-sulfophenyl)azo)-1H-pyrazole-3-carboxylic acid] |

| Structure (SMILES) | solubility in water (25° C.) | solubility in water (at about 25° C.) |
| --- | --- | --- |
| O=S(=O)([O-])c1ccc(N=Nc2c(O)ccc3ccccc23)cc1.[Na+] [Acid Orange 7, sodium salt of 4-[(2-hydroxy-1-naphthyl)azo]benzene sulphonate] | more than 7 g/L | – |
